Measured values published in US11370774B2, “Substituted benzofuran, benzopyrrole, benzothiophene, and structurally related complement inhibitors” (BioCryst Pharmaceuticals, Inc., priority 2018, dated 2022).

Biological target: Factor D (Homo sapiens (Human), UniProt P00746)
Experiment: Factor D esterolytic assay (Z-Lys-SBzl substrate, DTNB, 405 nm)
Format: biochemical
Settings: Z-Lys-SBzl 1.29 mM, pH 7.5, 10% DMSO, tested a minimum of three times, read-out: Measured Ki (IC50) Value for Compounds: IC50
Outline: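 Thioester hydrolysis (Z-Lys-SBzl, 1.29 mM) by human Factor D ([…]) detected through DTNB color at 405 nm over 600 sec, minus 690 nm background. Buffer: 100 mM HEPES pH 7.5, 500 mM NaCl, 10% DMSO; optional room-temperature preincubation before substrate. IC50 derived from percent rate inhibition; at least three runs.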

Factor D, sequence (P00746 26-253): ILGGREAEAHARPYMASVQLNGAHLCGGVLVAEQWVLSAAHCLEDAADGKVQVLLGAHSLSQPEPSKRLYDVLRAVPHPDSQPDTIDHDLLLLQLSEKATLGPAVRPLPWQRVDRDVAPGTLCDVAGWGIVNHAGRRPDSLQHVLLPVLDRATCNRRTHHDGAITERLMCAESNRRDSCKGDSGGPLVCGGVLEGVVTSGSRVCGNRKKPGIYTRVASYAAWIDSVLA

SMILES | IC50 [nM]
NCc1cccc(-c2cc(COc3ccccc3CC(=O)O)cc3ccsc23)c1 [Compound 214f, 2-(2-((7-(3-(aminomethyl)phenyl)benzo[b]thiophen-5-yl)methoxy)phenyl)acetic acid] | < 1000
NCc1cccc(-c2cc(COc3ccccc3CC(=O)O)cc3sccc23)c1 [Compound 116f, 2-(2-((4-(3-(aminomethyl)phenyl)benzo[b]thiophen-6-yl)methoxy)phenyl)acetic acid] | < 1000
NCc1cccc(-c2cc(COc3cc(N)ccc3CC(=O)O)cc3ccoc23)c1 [Compound 197c, 2-(4-amino-2-((7-(3-(aminomethyl)phenyl)benzofuran-5-yl)methoxy)phenyl)acetic acid] | < 1000
NCc1cccc(-c2nc(C(=O)Nc3cscc3CC(=O)O)c3cccn3n2)c1F [Compound 142d, 2-(4-(2-(3-(aminomethyl)-2-fluorophenyl)pyrrolo[2,1-f][1,2,4]triazine-4-carboxamido)thiophen-3-yl)acetic acid] | < 1000
NCc1cccc(-c2cc(OC[C@@H]3CCC[C@H]3C(=O)NCc3cccc(Cl)c3F)cc3ccoc23)c1 (relative stereo) [Compound 340e, (trans)-2-(((7-(3-(aminomethyl)phenyl)benzofuran-5-yl)oxy)methyl)-N-(3-chloro-2-fluorobenzyl)cyclopentanecarboxamide] | 1000 to 10000
COc1ccc(CC(=O)O)c(OCc2cc(-c3cccc(CN)c3F)c3occc3c2)c1 [Compound 465b, 2-(2-((7-(3-(aminomethyl)-2-fluorophenyl)benzofuran-5-yl)methoxy)-4-methoxyphenyl)acetic acid] | < 1000
NCc1cccc(-c2cc(COc3cc(F)ccc3CC(=O)O)c(F)c3ccoc23)c1F [Compound 485b, 2-(2-((7-(3-(aminomethyl)-2-fluorophenyl)-4-fluorobenzofuran-5-yl)methoxy)-4-fluorophenyl)acetic acid] | < 1000
NCc1cc(-c2cc(COc3cc(-c4ccccc4)ccc3CC(=O)O)cc3ccoc23)ccn1 [Compound 393d, 2-(3-((7-(2-(aminomethyl)pyridin-4-yl)benzofuran-5-yl)methoxy)-[1,1′-biphenyl]-4-yl)acetic acid] | < 1000
NCc1cccc(-c2cc(COc3ccccc3CC(=O)O)cc3cc(CO)oc23)c1 [Compound 76f, 2-(2-((7-(3-(aminomethyl)phenyl)-2-(hydroxymethyl)benzofuran-5-yl)methoxy)phenyl)acetic acid] | < 1000
NCc1cc(-c2cc(COc3ccccc3CC(=O)O)nc3ccoc23)ccn1 [Compound 168c, 2-(2-((7-(2-(aminomethyl)pyridin-4-yl)furo[3,2-b]pyridin-5-yl)methoxy)phenyl)acetic acid] | < 1000
CC(=O)c1ccc(CC(=O)O)c(OCc2cc(-c3ccnc(CN)c3)c3occc3c2)c1 [Compound 511e, 2-(4-acetyl-2-((7-(2-(aminomethyl)pyridin-4-yl)benzofuran-5-yl)methoxy)phenyl)acetic acid] | < 1000
Cc1cc2c(-c3ccnc(CN)c3)cc(COc3ccccc3CC(=O)O)cc2o1 [Compound 461c, 2-(2-((4-(2-(aminomethyl)pyridin-4-yl)-2-methylbenzofuran-6-yl)methoxy)phenyl)acetic acid] | < 1000
NCc1cccc(-c2nc(C(=O)Nc3ccccc3CC(=O)O)cc3[nH]ccc23)c1 [Compound 83h, 2-(2-(4-(3-(aminomethyl)phenyl)-1H-pyrrolo[3,2-c]pyridine-6-carboxamido)phenyl)acetic acid] | < 1000
NCc1cccc(-c2cc(COc3cc(C4CC4)ccc3CC(=O)O)cc3ccoc23)c1 [Compound 203c, 2-(2-((7-(3-(aminomethyl)phenyl)benzofuran-5-yl)methoxy)-4-cyclopropylphenyl)acetic acid] | < 1000
CN(Cc1ccccc1)Cc1cc2cc(COc3ccccc3CC(=O)O)cc(-c3cccc(CN)c3)c2o1 [Compound 287c, 2-(2-((7-(3-(aminomethyl)phenyl)-2-((benzyl(methyl)amino)methyl)benzofuran-5-yl)methoxy)phenyl)acetic acid] | < 1000
NCCCNCc1cc2cc(COc3ccccc3CC(=O)O)cc(-c3cccc(CN)c3)c2o1 [Compound 195d, 2-(2-((7-(3-(aminomethyl)phenyl)-2-(((3-aminopropyl)amino)methyl)benzofuran-5-yl)methoxy)phenyl)acetic acid] | < 1000
Cc1cc(CC(=O)O)c(OCc2cc(-c3cccc(CN)c3)c3occc3c2)c2c1CCC2 [Compound 286g, 2-(4-((7-(3-(aminomethyl)phenyl)benzofuran-5-yl)methoxy)-7-methyl-2,3-dihydro-1H-inden-5-yl)acetic acid] | < 1000
NCc1cccc(-c2cc(COc3ccccc3CC(=O)O)cc3c2ccn3S(=O)(=O)C2CC2)c1 [Compound 212e, 2-(2-((4-(3-(aminomethyl)phenyl)-1-(cyclopropylsulfonyl)-1H-indol-6-yl)methoxy)phenyl)acetic acid] | < 1000

SMILES | IC50 [nM]
NCc1nccc(-c2cc(COc3c(F)cccc3CC(=O)O)cc3ccoc23)c1F [Compound 510d, 2-(2-((7-(2-(aminomethyl)-3-fluoropyridin-4-yl)benzofuran-5-yl)methoxy)-3-fluorophenyl)acetic acid] | < 1000
Cc1coc2c(-c3cccc(CN)c3)cc(COc3ccccc3CC(=O)O)cc12 [Compound 382h, 2-(2-((7-(3-(aminomethyl)phenyl)-3-methylbenzofuran-5-yl)methoxy)phenyl)acetic acid] | < 1000
Cn1ccc2c(-c3cccc(CN)c3)cc(COc3ccccc3CC(=O)O)cc21 [Compound 50e, 2-(2-((4-(3-(aminomethyl)phenyl)-1-methyl-1H-indol-6-yl)methoxy)phenyl)acetic acid] | < 1000
NCc1cccc(-c2cc(COc3ccccc3CC(=O)O)cc3nc[nH]c23)c1 [Compound 167e, 2-(2-((7-(3-(aminomethyl)phenyl)-1H-benzo[d]imidazol-5-yl)methoxy)phenyl)acetic acid] | < 1000
CC(=O)c1ccc(CC(=O)O)c(OCc2cc(-c3cccc(CN)c3F)c3occc3c2)c1 [Compound 479d, 2-(4-acetyl-2-((7-(3-(aminomethyl)-2-fluorophenyl)benzofuran-5-yl)methoxy)phenyl)acetic acid] | < 1000
Cc1cc2cc(COc3cc(C(N)=O)ccc3CC(=O)O)cc(-c3cccc(CN)c3)c2o1 [Compound 429c, 2-(2-((7-(3-(aminomethyl)phenyl)-2-methylbenzofuran-5-yl)methoxy)-4-carbamoylphenyl)acetic acid] | < 1000
Cc1ccc(CC(=O)O)c(NC(=O)c2nc(-c3cccc(CN)c3)nn3cccc23)c1 [Compound 39d, 2-(2-(2-(3-(aminomethyl)phenyl)pyrrolo[2,1-f][1,2,4]triazine-4-carboxamido)-4-methylphenyl)acetic acid] | < 1000
NCc1cccc(-c2cc(COc3ccccc3CC(=O)O)cc3occc23)c1 [Compound 115f, 2-(2-((4-(3-(aminomethyl)phenyl)benzofuran-6-yl)methoxy)phenyl)acetic acid] | < 1000
NCc1cccc(-c2cc(C(=O)Nc3ccccc3CC(=O)O)cn3ccnc23)c1 [Compound 125c, 2-(2-(8-(3-(aminomethyl)phenyl)imidazo[1,2-a]pyridine-6-carboxamido)phenyl)acetic acid] | > 10000
CC(=O)c1ccc(OCc2cc(-c3cccc(CN)c3)c3occc3c2)c(CC(=O)O)c1 [Compound 330c, 2-(5-acetyl-2-((7-(3-(aminomethyl)phenyl)benzofuran-5-yl)methoxy)phenyl)acetic acid] | < 1000
COCc1cc2cc(COc3ccccc3CC(=O)O)cc(-c3cccc(CN)c3)c2o1 [Compound 96e, 2-(2-((7-(3-(aminomethyl)phenyl)-2-(methoxymethyl)benzofuran-5-yl)methoxy)phenyl)acetic acid] | < 1000
COc1ccc(CC(=O)O)c(OCc2cc(-c3cccc(CN)c3)c3ccn(C(C)C)c3c2)c1 [Compound 356c, 2-(2-((4-(3-(aminomethyl)phenyl)-1-isopropyl-1H-indol-6-yl)methoxy)-4-methoxyphenyl)acetic acid] | < 1000
NCc1nccc(-c2cc(COc3cc(-c4ccccc4)ccc3CC(=O)O)cc3ccoc23)c1F [Compound 394c, 2-(3-((7-(2-(aminomethyl)-3-fluoropyridin-4-yl)benzofuran-5-yl)methoxy)-[1,1′-biphenyl]-4-yl)acetic acid] | < 1000
Cc1ccc(CC(=O)O)c(OCc2cc(-c3cccc(CN)c3F)c3oc(F)cc3c2)c1 [Compound 524b, 2-(2-((7-(3-(aminomethyl)-2-fluorophenyl)-2-fluorobenzofuran-5-yl)methoxy)-4-methylphenyl)acetic acid] | < 1000
Cc1ccc(CC(=O)O)c(OCc2cc(-c3cccc(CN)c3F)c3occc3c2)c1 [Compound 270c, 2-(2-((7-(3-(aminomethyl)-2-fluorophenyl)benzofuran-5-yl)methoxy)-4-methylphenyl)acetic acid] | < 1000
NCc1cccc(-c2cc(COc3cccc(C(F)(F)F)c3CC(=O)O)cc3ccoc23)c1 [Compound 282f, 2-(2-((7-(3-(aminomethyl)phenyl)benzofuran-5-yl)methoxy)-6-(trifluoromethyl)phenyl)acetic acid] | < 1000
Cc1cc2cc(COc3cc(CN)ccc3CC(=O)O)cc(-c3cccc(CN)c3)c2o1 [Compound 257k, 2-(4-(aminomethyl)-2-((7-(3-(aminomethyl)phenyl)-2-methylbenzofuran-5-yl)methoxy)phenyl)acetic acid] | < 1000
NCc1cccc(-c2cc(COc3ccccc3CC(=O)O)nc3ccoc23)c1 [Compound 119e, 2-(2-((7-(3-(aminomethyl)phenyl)furo[3,2-b]pyridin-5-yl)methoxy)phenyl)acetic acid] | < 1000
